{"source": "patent US7078223B2", "about": "“Process for the preparation of pseudomonic acid a antibiotic by microbiological method” (TEVA Gyógyszergyár Zártkörüen Müködö Részvénytársaság, priority 1999, dated 2006)", "key": {"[1]": {"conditions": "both for humans and animals; cited from earlier work"}, "[2]": {"target": "isoleucine-tRNA synthase enzyme (Escherichia coli, UniProt P00956)", "sequence (P00956 whole entry)": "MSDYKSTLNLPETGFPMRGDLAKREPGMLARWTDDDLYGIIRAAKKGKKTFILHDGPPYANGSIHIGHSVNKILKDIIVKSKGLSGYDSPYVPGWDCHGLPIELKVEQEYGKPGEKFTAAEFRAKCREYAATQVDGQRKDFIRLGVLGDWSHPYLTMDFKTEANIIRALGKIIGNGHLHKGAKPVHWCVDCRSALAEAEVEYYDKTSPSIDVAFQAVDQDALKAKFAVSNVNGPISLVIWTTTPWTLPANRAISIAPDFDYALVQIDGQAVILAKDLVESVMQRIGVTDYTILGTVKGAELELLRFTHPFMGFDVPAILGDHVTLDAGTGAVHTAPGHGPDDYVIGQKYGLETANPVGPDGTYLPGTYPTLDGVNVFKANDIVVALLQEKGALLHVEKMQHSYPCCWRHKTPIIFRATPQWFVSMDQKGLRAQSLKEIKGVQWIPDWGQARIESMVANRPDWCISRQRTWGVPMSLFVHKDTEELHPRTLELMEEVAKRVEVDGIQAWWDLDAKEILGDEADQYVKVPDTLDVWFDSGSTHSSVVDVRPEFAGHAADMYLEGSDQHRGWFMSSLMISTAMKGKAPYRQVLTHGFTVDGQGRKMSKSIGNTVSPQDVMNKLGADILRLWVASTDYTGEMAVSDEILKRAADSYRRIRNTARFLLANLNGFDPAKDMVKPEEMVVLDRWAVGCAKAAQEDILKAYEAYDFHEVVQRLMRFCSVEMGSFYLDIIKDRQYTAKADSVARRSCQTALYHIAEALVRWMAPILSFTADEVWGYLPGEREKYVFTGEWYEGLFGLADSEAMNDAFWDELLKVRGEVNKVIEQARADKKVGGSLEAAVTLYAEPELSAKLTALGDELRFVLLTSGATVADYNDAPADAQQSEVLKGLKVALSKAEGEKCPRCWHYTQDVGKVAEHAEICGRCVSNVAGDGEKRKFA", "conditions": "affects the peptide synthesis of pathogen bacteria; cited from earlier work"}, "[3]": {"system": "Bacillus subtilis ATCC 6633", "assay": "agar diffusion microbial method", "assay_type": "cell-based", "conditions": "beef-extract-peptone-glucose agar, pH 6.5, Bacillus subtilis ATCC 6633", "protocol": "The antibacterial activity of the pseudomonic acid antibiotic complex is determined by agar diffusion microbial method. The medium is a beef-extract-peptone-glucose-containing agar, its pH is 6.5 and the test organism is Bacillus subtilis ATCC 6633."}}}
{"smiles": "C/C(=C\\C(=O)OCCCCCCCCC(=O)O)CC1OC[C@H](C[C@@H]2O[C@H]2[C@@H](C)[C@H](C)O)[C@@H](O)[C@H]1O", "note": "(stereo partly drawn) [Pseudomonic acid A, 9-{4[5S(2S,3S-epoxy-5S-hydroxy-4S-methylhexyl)-3R,4R-dihydroxy-tetrahydropyran-2S-yl]-3-methylbut-2(E)-enoyloxy}nonanoic acid]", "values": [{"measurement": "toxicity", "setting": "[1]", "value": "very low toxicity"}, {"measurement": "inhibition of isoleucine-tRNA synthase enzyme", "setting": "[2]", "value": "inhibiting"}]}
{"smiles": "C/C(=C\\C(=O)OCCCCCCCCC(=O)O)CC1OC[C@](O)(C[C@@H]2O[C@H]2[C@@H](C)[C@H](C)O)[C@@H](O)[C@H]1O", "note": "(stereo partly drawn) [component B, pseudomonic acid B]", "values": [{"measurement": "specific activity against the test-microorganism relating to the component A", "setting": "[3]", "value": "considerably weaker"}]}
